In experiment [1] the target is T1, SIRT1 (Homo sapiens, UniProt Q96EB6).
T1 sequence (Q96EB6 1-747): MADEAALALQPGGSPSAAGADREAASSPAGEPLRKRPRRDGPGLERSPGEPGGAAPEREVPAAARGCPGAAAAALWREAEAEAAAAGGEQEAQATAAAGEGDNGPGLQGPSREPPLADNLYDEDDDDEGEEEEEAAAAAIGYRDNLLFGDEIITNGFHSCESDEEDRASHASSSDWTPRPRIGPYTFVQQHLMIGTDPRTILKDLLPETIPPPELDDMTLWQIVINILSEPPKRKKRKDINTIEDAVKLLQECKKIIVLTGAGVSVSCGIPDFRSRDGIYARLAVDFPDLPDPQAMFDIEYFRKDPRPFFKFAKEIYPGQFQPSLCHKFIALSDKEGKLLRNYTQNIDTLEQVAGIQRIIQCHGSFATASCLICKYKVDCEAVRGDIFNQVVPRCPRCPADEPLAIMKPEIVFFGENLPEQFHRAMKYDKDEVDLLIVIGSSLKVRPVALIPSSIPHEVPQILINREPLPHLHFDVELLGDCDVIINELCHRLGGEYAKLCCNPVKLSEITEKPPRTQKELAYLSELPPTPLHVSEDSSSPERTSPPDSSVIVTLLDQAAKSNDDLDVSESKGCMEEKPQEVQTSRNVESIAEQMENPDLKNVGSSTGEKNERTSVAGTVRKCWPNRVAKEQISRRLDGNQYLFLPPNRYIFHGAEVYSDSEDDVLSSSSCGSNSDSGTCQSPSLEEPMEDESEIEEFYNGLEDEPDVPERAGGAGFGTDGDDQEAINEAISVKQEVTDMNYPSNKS
Nature of the experiment: TAMRA based mass spectrometry assay of SIRT1 activity. The class given is biochemical. The following applies: for Emax: read-out: TAMRA % Fold Act. Put shortly: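 Recombinant N-terminal His-tagged human SIRT1 (10 nM, E. coli) incubated 25 min at 25 °C with 0.5 μM 5TMR-labelled p53-derived acetyl-peptide and 120 μM βNAD+ in Tris-acetate pH 8 buffer with DTT and 0.05% BSA, compound at varying concentrations. Stopped with formic acid; deacetylated peptide or OAADPR measured by mass spectrometry relative to DMSO controls.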

Experiment [2] has as its target T1, SIRT1. Put plainly: Trp mass spectrometry assay of SIRT1 activity. It is filed as biochemical. The following applies: for Emax: read-out: Trp % Fold Act. In short, it runs like this:
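His-tagged SIRT1 expressed in E. coli BL21(DE3), 10 nM, incubated 25 min at 25° C. with 0.5 μM Ac-RHKK(Ac)W-NH2 peptide and 120 μM βNAD+ in 50 mM HEPES pH 7.5, […], 1 mM DTT, 0.05% BSA; formic acid stop. OAADPR or deacetylated peptide measured by mass spectrometry; EC1.5 and percent maximum activation versus DMSO control.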

The mark [3] stands for this setting: TAMRA peptide substrate, concentration giving 150% activation of SIRT1.
[4] abbreviates: TAMRA peptide substrate, percent maximum fold activation.
Setting [5] is: Trp peptide substrate, concentration giving 150% activation of SIRT1.
[6] abbreviates: Trp peptide substrate, percent maximum fold activation.
Setting [7] is: concentration of test compound giving 150% activation of SIRT1, TAMRA peptide substrate.
Setting [8] is: percent maximum fold activation of SIRT1, TAMRA peptide substrate.
[9] abbreviates: concentration of test compound giving 150% activation of SIRT1, Trp peptide substrate.
[10] abbreviates: percent maximum fold activation of SIRT1, Trp peptide substrate.
Where [11] appears, read: TAMRA assay, concentration giving 150% activation of SIRT1.
Where [12] appears, read: TAMRA assay, percent maximum fold activation.
Setting [13] is: Trp assay, concentration giving 150% activation of SIRT1.
Setting [14] is: Trp assay, percent maximum fold activation.

The source of these data is patent US9957271B2, “Substituted bicyclic aza-heterocycles and analogues as sirtuin modulators” (GlaxoSmithKline, LLC, priority 2012, dated 2018).

On to `O=C(Nc1cnn2ccc(-c3ccccc3OC(F)(F)F)nc12)c1ccncc1` [Compound 583], for which, on SIRT1 [1] (setting [3]), the “TAMRA EC1.5” value was “B (EC1.5 1-25 μM)”. Besides, the Emax at SIRT1 [1] (setting [4]) and on SIRT1 [2] (setting [6]) was below 350% in each case. For the same molecule, at SIRT1 [2] (setting [5]), the “Trp EC1.5” value is recorded as “C (EC1.5>25 μM)”.

As for `O=C(Nc1cccnc1)c1cnc2ccc(-c3cccc(F)c3Cl)nn12` [Compound 183], the “TAMRA EC1.5 (μM)” value on SIRT1 [1] (setting [7]) is “B (EC1.5 1-25 μM)”. The Emax on SIRT1 [1] (setting [8]) and at SIRT1 [2] (setting [10]) was below 350% throughout. Further, the “Trp EC1.5 (μM)” value at SIRT1 [2] (setting [9]) was “C (EC1.5>25 μM)”.

As for `Cc1nn2ccc(-c3ccccc3C(F)(F)F)nc2c1C(=O)Nc1ccnc(O)c1` [Compound 784], the “TAMRA EC1.5 (μM)” value at SIRT1 [1] (setting [11]) was “A (EC1.5<1 μM)”. For the same molecule, the Emax at SIRT1 [1] (setting [12]) and at SIRT1 [2] (setting [14]) was at least 350% each time. At SIRT1 [2] (setting [13]), the “Trp EC1.5 (μM)” value was “A (EC1.5<1 μM)”.

For `O=C(Nc1ccncc1)c1cnc2ccc(-c3ccccc3C(F)(F)F)nn12` [Compound 77], the “TAMRA EC1.5 (μM)” value at SIRT1 [1] (setting [7]) was “B (EC1.5 1-25 μM)”. Besides, the Emax on SIRT1 [1] (setting [8]) was at least 350%; on SIRT1 [2] (setting [10]) it was below 350%. In addition, the “Trp EC1.5 (μM)” value on SIRT1 [2] (setting [9]) was “B (EC1.5 1-25 μM)”.

With `Cc1cc(NC(=O)c2cnc3ccc(-c4ccccc4OC[C@H](O)CO)nn23)nc(C)n1` [Compound 832], the “TAMRA EC1.5 (μM)” value on SIRT1 [1] (setting [11]) is recorded as “A (EC1.5<1 μM)”. The results for the Emax on SIRT1 [1] (setting [12]) and at SIRT1 [2] (setting [14]) were at least 350% and below 350%, respectively. Besides, the “Trp EC1.5 (μM)” value on SIRT1 [2] (setting [13]) is listed as “B (EC1.5 1-25 μM)”.

Turning to `Cc1c(-c2ccccc2C(F)(F)F)nn2c(C(=O)Nc3cccc(N4CCOCC4)n3)cnc2c1C` [Compound 227], at SIRT1 [1] (setting [11]), the “TAMRA EC1.5 (μM)” value is “A (EC1.5<1 μM)”. For the same molecule, the Emax at SIRT1 [1] (setting [12]) and on SIRT1 [2] (setting [14]) was at least 350% each time. In addition, the “Trp EC1.5 (μM)” value at SIRT1 [2] (setting [13]) was “B (EC1.5 1-25 μM)”.

As for `Cc1cc(-c2ccccc2C(F)(F)F)nn2c(C(=O)Nc3ccnc(N4CCC4)c3)cnc12` [Compound 207], the “TAMRA EC1.5 (μM)” value at SIRT1 [1] (setting [11]) is “A (EC1.5<1 μM)”. Besides, the Emax on SIRT1 [1] (setting [12]) and on SIRT1 [2] (setting [14]) was at least 350% throughout. Further, on SIRT1 [2] (setting [13]), the “Trp EC1.5 (μM)” value is “A (EC1.5<1 μM)”.

Turning to `Cc1nc2ccc(-c3ccccc3C(F)(F)F)nn2c1NC(=O)c1nccs1` [Compound 380], on SIRT1 [1] (setting [11]), the “TAMRA EC1.5 (μM)” value was “B (EC1.5 1-25 μM)”. Further, the Emax is at least 350% on SIRT1 [1] (setting [12]) and below 350% on SIRT1 [2] (setting [14]). Moreover, on SIRT1 [2] (setting [13]), the “Trp EC1.5 (μM)” value is recorded as “C (EC1.5>25 μM)”.

Turning to `O=C(Nc1ccnc(OCC(O)CO)n1)c1cnc2ccc(-c3ccccc3C(F)(F)F)nn12` (stereo not shown) [Compound 74], the “TAMRA EC1.5 (μM)” value on SIRT1 [1] (setting [7]) is “A (EC1.5<1 μM)”. Further, the Emax at SIRT1 [1] (setting [8]) and on SIRT1 [2] (setting [10]) was at least 350% each time. On SIRT1 [2] (setting [9]), the “Trp EC1.5 (μM)” value is reported as “A (EC1.5<1 μM)”.

Consider `Cc1cccc(NC(=O)c2cnc3ccc(-c4ccccc4OC(F)(F)F)nn23)n1` [Compound 431], for which the “TAMRA EC1.5” value on SIRT1 [1] (setting [3]) is listed as “A (EC1.5<1 μM)”. Further, the Emax at SIRT1 [1] (setting [4]) is at least 350%; at SIRT1 [2] (setting [6]), below 350%. In addition, at SIRT1 [2] (setting [5]), the “Trp EC1.5” value was “B (EC1.5 1-25 μM)”.

As for `O=C(Nc1cccc(CN2CCOCC2)n1)c1cnc2ccc(-c3ccc(F)cc3F)nn12` [Compound 41], the “TAMRA EC1.5 (μM)” value on SIRT1 [1] (setting [7]) was “B (EC1.5 1-25 μM)”. In addition, the Emax on SIRT1 [1] (setting [8]) and on SIRT1 [2] (setting [10]) was below 350% each time. Further, on SIRT1 [2] (setting [9]), the “Trp EC1.5 (μM)” value is reported as “C (EC1.5>25 μM)”.

Turning to `O=C(Nc1cccnc1)c1cnc2ccc(-c3ccc(F)c(F)c3F)nn12` [Compound 131], the “TAMRA EC1.5 (μM)” value at SIRT1 [1] (setting [7]) is reported as “C (EC1.5>25 μM)”. The Emax on SIRT1 [1] (setting [8]) and on SIRT1 [2] (setting [10]) was below 350% in each case. For the same molecule, at SIRT1 [2] (setting [9]), the “Trp EC1.5 (μM)” value is reported as “C (EC1.5>25 μM)”.

Consider `Cc1nc2ccc(-c3cccc(OC[C@H](O)CO)c3)nn2c1C(=O)Nc1ccccn1` [Compound 772, (R)-6-(3-(2,3-dihydroxypropoxy)phenyl)-2-methyl-N-(pyridin-2-yl)imidazo[1,2-b]pyridazine-3-carboxamide], for which the “TAMRA EC1.5 (μM)” value on SIRT1 [1] (setting [11]) is “B (EC1.5 1-25 μM)”. Further, the Emax at SIRT1 [1] (setting [12]) and at SIRT1 [2] (setting [14]) was at least 350% in each case. Besides, at SIRT1 [2] (setting [13]), the “Trp EC1.5 (μM)” value is listed as “B (EC1.5 1-25 μM)”.
